Source: patent US20250340551A1, “SMALL MOLECULE MODULATORS OF STAT6” (Gilead Sciences, Inc., priority 2024, published 2025)

The molecules below were run on Eotaxin-3 (CCL26) release in human whole blood stimulated with IL-4 (assay: Human whole blood eotaxin-3 assay (IL-4 stimulated, Eotaxin-3 release)). Conditions: Homo sapiens, 48 h.
Type: cell-based
Procedure: This was a human whole blood assay using recombinant human Interleukin 4 to stimulate the blood and measuring the ability of the test compounds to inhibit eotaxin-3 release. The biological activities of the test compounds have been tested in human whole blood stimulated with IL-4 measuring Eotaxin-3 release. The test compounds were added to 384 well clear flat-bottom plate in a 4-fold serial dilution in triplicates using a liquid handler. Human whole blood stabilized in lithium-heparin tubes was added in a volume of 65 μL per well, resulting in a final DMSO concentration of 0.5%. The plate is incubated for 2 h at 37° C. under 5% CO2/95% air. Subsequently, 5 μL of recombinant human IL-4 (R&D Systems, cat #204-ILB) was added to the wells to a final concentration of 400 pM. The plate was incubated for 48 h at 37° C. under 5% CO2/95% air. The plate was spun down for 10 minutes at 500×g and 20 μL supernatant was harvested and transferred to a 384 well v-bottom plate using a liquid handler and stored at −20° C. until further analysis. 10 μL supernatant was used to measure the level of Eotaxin-3 (CCL26) using Human Eotaxin-3 MSD kit from Mesocsale (Cat #K251UEK-4). The assay was performed according to the manufacture instructions.
The data from the human whole blood eotaxin-3 assay is shown below for Examples 1u2, 1x1, 1af26, and 1af36 (where the effect in % is plotted against the test concentration in M on a log-scale).

| Compound | Emax |
| --- | --- |
| Cc1cc(C2=CCN(Cc3cc4c(-c5ccc(N)nc5)ccnc4n3C)CC2)ccc1C(=O)N(C)C [Example 1z5, 4-(1-((4-(6-aminopyridin-3-yl)-1-methyl-1H-pyrrolo[2,3-b]pyridin-2-yl)methyl)-1,2,3,6-tetrahydropyridin-4-yl)-N,N,2-trimethylbenzamide] | 30 to 40% |
| Cc1cc(C(=O)N(C)C)nnc1C1=CCN(Cc2cc3c(-c4ccc(N)nc4)ccnc3n2C)CC1 [Example 1z6, 6-(1-((4-(6-aminopyridin-3-yl)-1-methyl-1H-pyrrolo[2,3-b]pyridin-2-yl)methyl)-1,2,3,6-tetrahydropyridin-4-yl)-N,N,5-trimethylpyridazine-3-carboxamide] | < 20% |
| [2H]C([2H])([2H])N(C(=O)c1ccc(C2=CCN(Cc3cc4c(-c5ccc(N)nc5)ccnc4n3C)CC2)nn1)C([2H])([2H])[2H] [Example 1z4, 6-(1-((4-(6-aminopyridin-3-yl)-1-methyl-1H-pyrrolo[2,3-b]pyridin-2-yl)methyl)-1,2,3,6-tetrahydropyridin-4-yl)-N,N-bis(methyl-d3)pyridazine-3-carboxamide] | 20 to 30% |
| [2H]C([2H])([2H])N(C(=O)c1cnc(C2=CCN(Cc3cc4c(-c5ccc(N)nc5)ccnc4n3C)CC2)cn1)C([2H])([2H])[2H] [Example 1af79, 5-(1-((4-(6-Aminopyridin-3-yl)-1-methyl-1H-pyrrolo[2,3-b]pyridin-2-yl)methyl)-1,2,3,6-tetrahydropyridin-4-yl)-N,N-bis(methyl-d3)pyrazine-2-carboxamide] | 20 to 30% |

Same assay, conditions: Homo sapiens, Hec50, 48 h

| Compound | EC50 |
| --- | --- |
| CN(C)C(=O)c1cc(F)c(C2=CCN(Cc3cc4c(-c5ccc(N)nn5)ccnc4n3C)CC2)c(F)c1 [Example 1z18, 4-(1-((4-(6-aminopyridazin-3-yl)-1-methyl-1H-pyrrolo[2,3-b]pyridin-2-yl)methyl)-1,2,3,6-tetrahydropyridin-4-yl)-3,5-difluoro-N,N-dimethylbenzamide] | 0.204 µM |
| CNc1ccc(-c2ccnc3c2cc([C@H](C)N2CC=C(c4c(C)cc(C(=O)N(C)C)cc4F)CC2)n3C)cn1 [Example 1z37, (S)-3-fluoro-N,N,5-trimethyl-4-(1-(1-(1-methyl-4-(6-(methylamino)pyridin-3-yl)-1H-pyrrolo[2,3-b]pyridin-2-yl)ethyl)-1,2,3,6-tetrahydropyridin-4-yl)benzamide] | 0.439 µM |
| Cc1cc(C(=O)N(C)C)cc(F)c1C1=CCN(C(C)c2cc3c(-c4ccc(N)nc4)ccnc3n2C)CC1 (centres unmarked) [Example 1z28, 4-(1-(1-(4-(6-aminopyridin-3-yl)-1-methyl-1H-pyrrolo[2,3-b]pyridin-2-yl)ethyl)-1,2,3,6-tetrahydropyridin-4-yl)-3-fluoro-N,N,5-trimethylbenzamide] | 0.0216 µM |
| [2H]C([2H])([2H])N(C(=O)c1cc(C)c(C2=CCN([C@@H](C)c3cc4c(-c5ccc(NC)nn5)ccnc4n3C)CC2)c(F)c1)C([2H])([2H])[2H] [Example 1z44, (S)-3-fluoro-5-methyl-N,N-bis(methyl-d3)-4-(1-(1-(1-methyl-4-(6-(methylamino)-pyridazin-3-yl)-1H-pyrrolo[2,3-b]pyridin-2-yl)ethyl)-1,2,3,6-tetrahydropyridin-4-yl)benzamide] | 0.0395 µM |
| [2H]C([2H])([2H])N(C(=O)c1ccc(C2=CCN([C@@H](C)c3cc4c(-c5ccc(NC)nn5)ccnc4n3C)CC2)cc1)C([2H])([2H])[2H] [Example 1af60, (S)—N,N-bis(methyl-d3)-4-(1-(1-(1-methyl-4-(6-(methylamino)pyridazin-3-yl)-1H-pyrrolo[2,3-b]pyridin-2-yl)ethyl)-1,2,3,6-tetrahydropyridin-4-yl)benzamide] | 1.29 µM |
| CN(C)C(=O)c1ccc(C2CCN(Cc3cc4c(-c5ccc(N)c(C(=O)O)n5)ccnc4n3C)CC2)cc1 [Example 1k79, 3-Amino-6-[2-[[4-[4-(dimethylcarbamoyl)phenyl]-1-piperidyl]methyl]-1-methyl-pyrrolo[2,3-b]pyridin-4-yl]pyridine-2-carboxylic acid] | 7.17 µM |
| CN(C)C(=O)c1ccc(C2=CCN(Cc3cc4c(-c5ccc(N)nc5)ccnc4n3C)CC2)c(OC(F)(F)F)c1 [Example 1z45, 4-(1-((4-(6-aminopyridin-3-yl)-1-methyl-1H-pyrrolo[2,3-b]pyridin-2-yl)methyl)-1,2,3,6-tetrahydropyridin-4-yl)-N,N-dimethyl-3-(trifluoromethoxy)benzamide] | 0.798 µM |
| CN(C)C(=O)c1cc(F)c(C2=CCN(Cc3cc4c(-c5ccc(N)nc5C#N)ccnc4n3C)CC2)c(F)c1 [Example 1z42, 4-(1-((4-(6-amino-2-cyanopyridin-3-yl)-1-methyl-1H-pyrrolo[2,3-b]pyridin-2-yl)methyl)-1,2,3,6-tetrahydropyridin-4-yl)-3,5-difluoro-N,N-dimethylbenzamide] | 0.0973 µM |
| CNc1ccc(-c2ccnc3c2cc(CN2CC=C(c4ccc(C(=O)N(C)C)cc4Cl)CC2)n3C)nn1 [Example 1p18, 3-Chloro-N,N-dimethyl-4-[1-[[1-methyl-4-[6-(methylamino)pyridazin-3-yl]pyrrolo[2,3-b]pyridin-2-yl]methyl]-3,6-dihydro-2H-pyridin-4-yl]benzamide] | 1.71 µM |
| [2H]C([2H])([2H])N(C(=O)c1cc(C)c(C2=CCN([C@@H](C)c3cc4c(-c5ccc(N)nn5)ccnc4n3C)CC2)c(F)c1)C([2H])([2H])[2H] [Example 1af81, (S)-4-(1-(1-(4-(6-aminopyridazin-3-yl)-1-methyl-1H-pyrrolo[2,3-b]pyridin-2-yl)ethyl)-1,2,3,6-tetrahydropyridin-4-yl)-3-fluoro-5-methyl-N,N-bis(methyl-d3)benzamide] | 0.0126 µM |
| [2H]C([2H])([2H])N(C(=O)c1ccc(C2=CCN([C@@H](C)c3cc4c(-c5cnc(N)cc5F)ccnc4n3C)CC2)cc1)C([2H])([2H])[2H] [Example 1af55, (S)-4-(1-(1-(4-(6-Amino-4-fluoropyridin-3-yl)-1-methyl-1H-pyrrolo[2,3-b]pyridin-2-yl)ethyl)-1,2,3,6-tetrahydropyridin-4-yl)-N,N-bis(methyl-d3)benzamide] | 0.426 µM |
| [2H]C([2H])([2H])N(C(=O)c1ccc([C@@H]2CCN(Cc3cc4c(-c5ccc(N)cn5)ccnc4n3C)[C@H](C)C2)cc1)C([2H])([2H])[2H] [Example 1z9, 4-((2R,4R)-1-((4-(5-aminopyridin-2-yl)-1-methyl-1H-pyrrolo[2,3-b]pyridin-2-yl)methyl)-2-methylpiperidin-4-yl)-N,N-bis(methyl-d3)benzamide] | 0.167 µM |
| Cc1cc(C(=O)N(C)C)cc(F)c1C1=CCN([C@@H](C)c2cc3c(-c4ccc(N)nc4)ccnc3n2C)CC1 [Example 1z29, (S)-4-(1-(1-(4-(6-aminopyridin-3-yl)-1-methyl-1H-pyrrolo[2,3-b]pyridin-2-yl)ethyl)-1,2,3,6-tetrahydropyridin-4-yl)-3-fluoro-N,N,5-trimethylbenzamide] | 1.06 µM |
| CN(C)C(=O)c1ccc(C2=CCN(Cc3cc4c(-c5ccc(N)nn5)ccnc4n3C)CC2)c(Cl)c1 [Example 1af77, 4-(1-((4-(6-Aminopyridazin-3-yl)-1-methyl-1H-pyrrolo[2,3-b]pyridin-2-yl)methyl)-1,2,3,6-tetrahydropyridin-4-yl)-3-chloro-N,N-dimethylbenzamide] | 0.871 µM |
| CNc1ccc(-c2ccnc3c2cc([C@@H](C)N2CC=C(c4c(C)cc(C(=O)N(C)C)cc4F)CC2)n3C)nc1 [Example 1z41, (R)-3-fluoro-N,N,5-trimethyl-4-(1-(1-(1-methyl-4-(5-(methyl-amino)pyridin-2-yl)-1H-pyrrolo[2,3-b]pyridin-2-yl)ethyl)-1,2,3,6-tetrahydropyridin-4-yl)benzamide] | 0.11 µM |
| [2H]C([2H])([2H])N(C(=O)c1ccc(C2CCN([C@@H](C)c3cc4c(-c5ccc(N)c(C)n5)ccnc4n3C)CC2)cc1)C([2H])([2H])[2H] [Example 1af66, (S)-4-(1-(1-(4-(5-amino-6-methylpyridin-2-yl)-1-methyl-1H-pyrrolo[2,3-b]pyridin-2-yl)ethyl)piperidin-4-yl)-N,N-bis(methyl-d3)benzamide] | 0.611 µM |
| [2H]C([2H])([2H])N(C(=O)c1ccc(C2CCN([C@@H](C)c3cc4c(-c5ncc(N)cc5OC)ccnc4n3C)CC2)cc1)C([2H])([2H])[2H] [Example 1af68, (S)-4-(1-(1-(4-(5-amino-3-methoxypyridin-2-yl)-1-methyl-1H-pyrrolo[2,3-b]pyridin-2-yl)ethyl)piperidin-4-yl)-N,N-bis(methyl-d3)benzamide] | 1.09 µM |
| Cc1cc(C(=O)N(C)C)cc(F)c1C1=CCN([C@H](C)c2cc3c(-c4ccc(N)cn4)ccnc3n2C)CC1 [Example 1z33, (R)-4-(1-(1-(4-(5-aminopyridin-2-yl)-1-methyl-1H-pyrrolo[2,3-b]pyridin-2-yl)ethyl)-1,2,3,6-tetrahydropyridin-4-yl)-3-fluoro-N,N,5-trimethylbenzamide] | 0.431 µM |
| CNc1ccc(-c2ccnc3c2cc(CN2CC=C(c4c(F)cc(C(=O)N(C)C)cc4Cl)CC2)n3C)nn1 [Example 1p20, 3-Chloro-5-fluoro-N,N-dimethyl-4-[1-[[1-methyl-4-[6-(methylamino)pyridazin-3-yl]pyrrolo[2,3-b]pyridin-2-yl]methyl]-3,6-dihydro-2H-pyridin-4-yl]benzamide] | 0.214 µM |
